Results taken from patent US20250091992A1, “NOVEL COMPOUNDS AND USES THEREOF” (KANNA HEALTH LIMITED, priority 2021, published 2025).

Columns and labels:
[1] = molecular target: human recombinant PDE-4B1 (Homo sapiens, UniProt Q07343); assay: PDE4-B1 assay (Compounds of Formula I), SPA; type: biochemical; conditions: 4-parameter logistical fit, two technical replicates
Procedure: (§1) 20 mins after addition of human recombinant PDE-4B1 (1.2 IEU) or PDE-4D2 (1.5 IEU), SPA beads were added and incubated at 22° C. for a further 30 mins. [^3H]5′AMP was quantified by a standard scintillation counting method.

[2] = molecular target: human serotonin transporter (Homo sapiens, UniProt P31645);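 note: Read-out: uptake of tritium-labelled serotonin, measured by scintillation counting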
Procedure: Following incubation, [^3H] serotonin uptake was quantified by a standard scintillation counting method.

[3] = molecular target: human recombinant PDE-4D2 (Homo sapiens, UniProt Q08499); assay: PDE4-D2 assay (Compounds of Formula I), SPA; type: biochemical; conditions: 4-parameter logistical fit, two technical replicates
Procedure: as §1

hSERT = molecular target: T1, hSERT (Homo sapiens, UniProt P31645); assay: SERT assay (Compounds of Formula II), transporter uptake assay kit; type: cell-based
T1 construct: expressed in transfected cells
Procedure: SERT assays were performed using a standard transporter uptake assay kit, (Molecular devices, (R8174)). In short, test compounds (10 nM-30 μM), reference compound or vehicle control were added to cells stably expressing hSERT (20,000/well) in assay buffer containing HBSS (20 mM) and BSA (0.1% (w/v)) for 30 mins at 30° C. Assay plates were incubated in the presence of dye for a further 60 mins at 37° C. and intracellular fluorescence intensity was determined.

PDE-4A1A = molecular target: T2, PDE-4A1A (Homo sapiens, UniProt P27815); assay: PDE-41A assay (Compounds of Formula II), AMP-Glo; type: biochemical
T2 construct: purchased Sigma SRP0262
Procedure: PDE-41A assays were performed using the AMP-Glo™ Assay Kit, (Promega-V5012) human recombinant […] (Sigma, SRP0262) according to recommended protocols. […]

human recombinant PDE-4D2, sequence (Q08499 303-809): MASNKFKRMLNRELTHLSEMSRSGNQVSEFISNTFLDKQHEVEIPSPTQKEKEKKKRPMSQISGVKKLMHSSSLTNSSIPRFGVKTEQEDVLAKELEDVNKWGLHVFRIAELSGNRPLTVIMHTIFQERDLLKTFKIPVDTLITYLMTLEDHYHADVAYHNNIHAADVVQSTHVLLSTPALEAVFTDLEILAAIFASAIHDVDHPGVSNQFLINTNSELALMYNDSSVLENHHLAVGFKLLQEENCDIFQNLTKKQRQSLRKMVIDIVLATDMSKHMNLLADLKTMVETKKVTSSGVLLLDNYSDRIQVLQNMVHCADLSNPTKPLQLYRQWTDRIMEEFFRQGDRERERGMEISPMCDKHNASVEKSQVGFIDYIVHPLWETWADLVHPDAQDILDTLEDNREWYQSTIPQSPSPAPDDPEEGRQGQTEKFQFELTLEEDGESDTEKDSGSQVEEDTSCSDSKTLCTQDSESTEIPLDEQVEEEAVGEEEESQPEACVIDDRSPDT
T2 sequence (P27815 1-647 isoform P27815-4): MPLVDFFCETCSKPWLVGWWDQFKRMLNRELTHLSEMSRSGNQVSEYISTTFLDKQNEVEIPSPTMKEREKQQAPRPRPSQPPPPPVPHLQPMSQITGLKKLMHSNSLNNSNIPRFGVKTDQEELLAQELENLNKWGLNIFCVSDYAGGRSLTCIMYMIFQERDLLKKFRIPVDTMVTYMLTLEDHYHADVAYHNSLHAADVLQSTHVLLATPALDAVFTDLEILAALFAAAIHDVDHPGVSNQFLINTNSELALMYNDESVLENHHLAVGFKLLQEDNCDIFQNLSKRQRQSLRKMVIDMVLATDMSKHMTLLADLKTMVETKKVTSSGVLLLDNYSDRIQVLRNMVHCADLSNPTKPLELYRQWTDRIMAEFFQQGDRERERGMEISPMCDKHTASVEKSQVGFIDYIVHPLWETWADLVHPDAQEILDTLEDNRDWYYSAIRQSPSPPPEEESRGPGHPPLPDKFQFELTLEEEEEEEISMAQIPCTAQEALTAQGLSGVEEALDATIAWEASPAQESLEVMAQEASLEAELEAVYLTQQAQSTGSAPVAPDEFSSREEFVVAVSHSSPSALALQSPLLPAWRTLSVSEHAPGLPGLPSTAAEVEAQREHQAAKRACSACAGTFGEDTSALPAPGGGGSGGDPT
human recombinant PDE-4B1, sequence (Q07343 whole entry): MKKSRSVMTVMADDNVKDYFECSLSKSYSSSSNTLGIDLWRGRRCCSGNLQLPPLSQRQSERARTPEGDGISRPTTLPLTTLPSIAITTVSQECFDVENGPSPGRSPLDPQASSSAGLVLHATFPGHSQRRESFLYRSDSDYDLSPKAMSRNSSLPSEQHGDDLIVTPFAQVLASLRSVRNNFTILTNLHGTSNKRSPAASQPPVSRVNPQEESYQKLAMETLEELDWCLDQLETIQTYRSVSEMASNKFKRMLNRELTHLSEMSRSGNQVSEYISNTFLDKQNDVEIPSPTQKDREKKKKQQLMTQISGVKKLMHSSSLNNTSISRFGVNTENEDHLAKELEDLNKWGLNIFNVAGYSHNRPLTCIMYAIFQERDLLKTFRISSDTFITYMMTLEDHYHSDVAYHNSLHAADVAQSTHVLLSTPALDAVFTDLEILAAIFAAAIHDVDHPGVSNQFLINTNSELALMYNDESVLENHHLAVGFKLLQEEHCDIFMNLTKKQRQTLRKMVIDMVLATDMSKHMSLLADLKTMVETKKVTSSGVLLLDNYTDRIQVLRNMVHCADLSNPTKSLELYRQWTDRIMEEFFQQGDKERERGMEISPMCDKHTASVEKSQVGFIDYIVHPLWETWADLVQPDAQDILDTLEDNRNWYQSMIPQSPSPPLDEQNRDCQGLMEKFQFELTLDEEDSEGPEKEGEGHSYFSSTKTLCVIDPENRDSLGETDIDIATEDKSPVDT
human serotonin transporter, sequence (P31645 whole entry): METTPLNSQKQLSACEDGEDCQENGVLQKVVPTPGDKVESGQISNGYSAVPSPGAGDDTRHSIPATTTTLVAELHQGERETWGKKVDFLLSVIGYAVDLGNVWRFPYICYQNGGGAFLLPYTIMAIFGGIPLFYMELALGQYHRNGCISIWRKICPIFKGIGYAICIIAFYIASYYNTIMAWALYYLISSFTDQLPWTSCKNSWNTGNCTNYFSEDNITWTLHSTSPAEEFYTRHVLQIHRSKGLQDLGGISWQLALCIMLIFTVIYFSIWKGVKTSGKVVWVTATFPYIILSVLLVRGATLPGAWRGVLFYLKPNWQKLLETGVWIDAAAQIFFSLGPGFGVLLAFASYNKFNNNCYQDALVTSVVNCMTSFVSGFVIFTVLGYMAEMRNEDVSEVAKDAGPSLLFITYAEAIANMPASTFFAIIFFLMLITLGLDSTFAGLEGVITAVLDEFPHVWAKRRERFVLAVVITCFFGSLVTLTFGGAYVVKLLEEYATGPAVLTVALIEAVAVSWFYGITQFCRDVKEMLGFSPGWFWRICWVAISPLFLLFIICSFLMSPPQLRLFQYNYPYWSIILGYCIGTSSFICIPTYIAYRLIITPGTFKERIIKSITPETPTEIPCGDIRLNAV
T1 sequence (P31645 whole entry): as above

CCOc1cc([C@@]23CCC(=O)C[C@@H]2N(C)CC3)ccc1OCC1CC1 [Compound 35]
IC50 [1]: > 30 µM
IC50 [2]: 0.2 µM
IC50 [3]: > 30 µM

CN1CC[C@]2(c3ccc(OCC4CC4)c(OCC4CC4)c3)CCC(=O)C[C@H]12 [Compound 36]
IC50 [1]: > 30 µM
IC50 [2]: 0.4 µM
IC50 [3]: > 30 µM

CCCCOc1cc([C@@]23CCC(=O)C[C@@H]2N(C)CC3)ccc1OCC1CC1 [Compound 37]
IC50 [1]: > 30 µM
IC50 [2]: 0.8 µM
IC50 [3]: > 30 µM

C=CCOc1cc([C@@]23CCC(=O)C[C@@H]2N(C)CC3)ccc1OCC1CC1 [Compound 38]
IC50 [1]: > 30 µM
IC50 [2]: 0.4 µM
IC50 [3]: > 30 µM

CN1CC[C@]2(c3ccc(OCC4CC4)c(OC4CCCC4)c3)CCC(=O)C[C@H]12 [Compound 39]
IC50 [1]: > 30 µM
IC50 [2]: 4.5 µM
IC50 [3]: > 30 µM

COc1ccc([C@]23CCC(=O)C[C@H]2N(C)CC3)cc1OC [Compound 45]
IC50 [3]: < 3 µM

COc1ccc([C@@]23CC[C@@H](OC(=O)CCC(=O)O)C[C@@H]2N(C)CC3)cc1OC [Compound 46]
inhibition at 1 µM (hSERT): 81%
inhibition at 3 µM (hSERT): 94%
inhibition at 30 µM (PDE-4A1A): 53%
inhibition at 100 µM (PDE-4A1A): 79%

COc1ccc([C@@]23CC[C@@H](OC(=O)CCCC(=O)O)C[C@@H]2N(C)CC3)cc1OC [Compound 47]
inhibition at 1 µM (hSERT): 90%
inhibition at 3 µM (hSERT): 94%
inhibition at 30 µM (PDE-4A1A): 40%
inhibition at 100 µM (PDE-4A1A): 88%

COc1ccc([C@@]23CC[C@@H](OC(=O)CN)C[C@@H]2N(C)CC3)cc1OC [Compound 48]
inhibition at 1 µM (hSERT): 93%
inhibition at 3 µM (hSERT): 101%
inhibition at 30 µM (PDE-4A1A): -8%
inhibition at 100 µM (PDE-4A1A): 48%

COc1ccc([C@@]23CC[C@@H](OC(=O)C(C)N)C[C@@H]2N(C)CC3)cc1OC (some centres unmarked) [Compound 49]
inhibition at 1 µM (hSERT): 95%
inhibition at 3 µM (hSERT): 97%
inhibition at 30 µM (PDE-4A1A): 87%
inhibition at 100 µM (PDE-4A1A): 86%

CCC(=O)O[C@@H]1CC[C@@]2(c3ccc(OC)c(OC)c3)CCN(C)[C@H]2C1 [Compound 50]
inhibition at 1 µM (hSERT): 98%
inhibition at 3 µM (hSERT): 98%
inhibition at 30 µM (PDE-4A1A): 92%
inhibition at 100 µM (PDE-4A1A): 101%

COc1ccc([C@@]23CC[C@@H](OC(=O)C(C)C)C[C@@H]2N(C)CC3)cc1OC [Compound 51]
inhibition at 1 µM (hSERT): 99%
inhibition at 3 µM (hSERT): 98%
inhibition at 30 µM (PDE-4A1A): 95%
inhibition at 100 µM (PDE-4A1A): 99%

COc1ccc([C@@]23CC[C@@H](OC(=O)c4ccccc4)C[C@@H]2N(C)CC3)cc1OC [Compound 52]
inhibition at 1 µM (hSERT): 91%
inhibition at 3 µM (hSERT): 91%
inhibition at 30 µM (PDE-4A1A): 97%
inhibition at 100 µM (PDE-4A1A): 99%

COc1ccc([C@@]23CC[C@@H](OC(=O)c4ccc[nH]4)C[C@@H]2N(C)CC3)cc1OC [Compound 53]
inhibition at 1 µM (hSERT): 99%
inhibition at 3 µM (hSERT): 98%
inhibition at 30 µM (PDE-4A1A): 94%
inhibition at 100 µM (PDE-4A1A): 97%

COc1ccc([C@@]23C=C[C@@H](OC(=O)CCC(=O)O)C[C@@H]2N(C)CC3)cc1OC [Compound 54]
inhibition at 1 µM (hSERT): 78%
inhibition at 3 µM (hSERT): 98%
inhibition at 30 µM (PDE-4A1A): 98%
inhibition at 100 µM (PDE-4A1A): 101%

COc1ccc([C@@]23C=C[C@@H](OC(=O)CCCC(=O)O)C[C@@H]2N(C)CC3)cc1OC [Compound 55]
inhibition at 1 µM (hSERT): 67%
inhibition at 3 µM (hSERT): 97%
inhibition at 30 µM (PDE-4A1A): 100%
inhibition at 100 µM (PDE-4A1A): 95%

COc1ccc([C@@]23C=C[C@@H](OC(=O)CN)C[C@@H]2N(C)CC3)cc1OC [Compound 56]
inhibition at 1 µM (hSERT): 86%
inhibition at 3 µM (hSERT): 99%
inhibition at 30 µM (PDE-4A1A): 74%
inhibition at 100 µM (PDE-4A1A): 102%

COc1ccc([C@@]23C=C[C@@H](OC(=O)C(C)N)C[C@@H]2N(C)CC3)cc1OC (some centres unmarked) [Compound 57]
inhibition at 1 µM (hSERT): 86%
inhibition at 3 µM (hSERT): 97%
inhibition at 30 µM (PDE-4A1A): 101%
inhibition at 100 µM (PDE-4A1A): 102%

CCC(=O)O[C@@H]1C=C[C@@]2(c3ccc(OC)c(OC)c3)CCN(C)[C@H]2C1 [Compound 58]
inhibition at 1 µM (hSERT): 98%
inhibition at 3 µM (hSERT): 98%
inhibition at 30 µM (PDE-4A1A): 103%
inhibition at 100 µM (PDE-4A1A): 100%

COc1ccc([C@@]23C=C[C@@H](OC(=O)C(C)C)C[C@@H]2N(C)CC3)cc1OC [Compound 59]
inhibition at 1 µM (hSERT): 99%
inhibition at 3 µM (hSERT): 97%
inhibition at 30 µM (PDE-4A1A): 100%
inhibition at 100 µM (PDE-4A1A): 100%

COc1ccc([C@@]23C=C[C@@H](OC(=O)c4ccccc4)C[C@@H]2N(C)CC3)cc1OC [Compound 60]
inhibition at 1 µM (hSERT): 92%
inhibition at 3 µM (hSERT): 95%
inhibition at 30 µM (PDE-4A1A): 98%
inhibition at 100 µM (PDE-4A1A): 100%

COc1ccc([C@@]23C=C[C@@H](OC(=O)c4ccc[nH]4)C[C@@H]2N(C)CC3)cc1OC [Compound 61]
inhibition at 1 µM (hSERT): 101%
inhibition at 3 µM (hSERT): 106%
inhibition at 30 µM (PDE-4A1A): 94%
inhibition at 100 µM (PDE-4A1A): 90%
